Assay: xn = mol fraction of the nth substance listed
Conditions: 100 kPa, Liquid; for viscosity: Falling or rolling sphere viscometry; for mass density: Vibrating tube method

CCCCCCCCCCC [undecane] + CCCCO
Conditions | mass density [kg/m3] | viscosity [mPa·s]
283.15 K, x1 = 0.1007 | 801.8 | 3.124
283.15 K, x1 = 0.2004 | 790.28 | 2.611
283.15 K, x1 = 0.299 | 781.12 | 2.24
283.15 K, x1 = 0.3981 | 773.6 | 1.939
283.15 K, x1 = 0.5006 | 767.02 | 1.722
283.15 K, x1 = 0.5964 | 761.98 | 1.582
283.15 K, x1 = 0.6982 | 757.32 | 1.471
283.15 K, x1 = 0.7979 | 753.51 | 1.416
283.15 K, x1 = 0.9 | 750.22 | 1.385
283.15 K, x1 = 1 | 747.78 | 1.371
288.15 K, x1 = 0.1007 | 798.03 | 2.731
288.15 K, x1 = 0.2004 | 786.48 | 2.294
288.15 K, x1 = 0.299 | 777.31 | 1.978
288.15 K, x1 = 0.3981 | 769.79 | 1.723
288.15 K, x1 = 0.5006 | 763.23 | 1.541
288.15 K, x1 = 0.5964 | 758.18 | 1.425
288.15 K, x1 = 0.6982 | 753.56 | 1.329
288.15 K, x1 = 0.7979 | 749.76 | 1.287
288.15 K, x1 = 0.9 | 746.49 | 1.26
288.15 K, x1 = 1 | 744.06 | 1.249
293.15 K, x1 = 0.1007 | 794.24 | 2.398
293.15 K, x1 = 0.2004 | 782.67 | 2.025
293.15 K, x1 = 0.299 | 773.49 | 1.755
293.15 K, x1 = 0.3981 | 765.96 | 1.54
293.15 K, x1 = 0.5006 | 759.41 | 1.387
293.15 K, x1 = 0.5964 | 754.38 | 1.29
293.15 K, x1 = 0.6982 | 749.77 | 1.212
293.15 K, x1 = 0.7979 | 746 | 1.176
293.15 K, x1 = 0.9 | 742.75 | 1.152
293.15 K, x1 = 1 | 740.35 | 1.145
298.15 K, x1 = 0.1007 | 790.42 | 2.115
298.15 K, x1 = 0.2004 | 778.83 | 1.795
298.15 K, x1 = 0.299 | 769.63 | 1.564
298.15 K, x1 = 0.3981 | 762.11 | 1.383
298.15 K, x1 = 0.5006 | 755.57 | 1.254
298.15 K, x1 = 0.5964 | 750.55 | 1.173
298.15 K, x1 = 0.6982 | 745.97 | 1.108
298.15 K, x1 = 0.7979 | 742.22 | 1.077
298.15 K, x1 = 0.9 | 739 | 1.058
298.15 K, x1 = 1 | 736.64 | 1.062
303.15 K, x1 = 0.1007 | 786.57 | 1.871
303.15 K, x1 = 0.2004 | 774.95 | 1.595
303.15 K, x1 = 0.299 | 765.75 | 1.392
303.15 K, x1 = 0.3981 | 758.22 | 1.248
303.15 K, x1 = 0.5006 | 751.7 | 1.139
303.15 K, x1 = 0.5964 | 746.69 | 1.071
303.15 K, x1 = 0.6982 | 742.14 | 1.016
303.15 K, x1 = 0.7979 | 738.42 | 0.991
303.15 K, x1 = 0.9 | 735.23 | 0.975
303.15 K, x1 = 1 | 732.93 | 0.982
308.15 K, x1 = 0.1007 | 782.69 | 1.663
308.15 K, x1 = 0.2004 | 771.05 | 1.426
308.15 K, x1 = 0.299 | 761.84 | 1.253
308.15 K, x1 = 0.3981 | 754.31 | 1.13
308.15 K, x1 = 0.5006 | 747.8 | 1.038
308.15 K, x1 = 0.5964 | 742.82 | 0.979
308.15 K, x1 = 0.6982 | 738.3 | 0.936
308.15 K, x1 = 0.7979 | 734.6 | 0.915
308.15 K, x1 = 0.9 | 731.45 | 0.902
308.15 K, x1 = 1 | 729.23 | 0.91
313.15 K, x1 = 0.1007 | 778.77 | 1.483
313.15 K, x1 = 0.2004 | 767.1 | 1.279
313.15 K, x1 = 0.299 | 757.88 | 1.131
313.15 K, x1 = 0.3981 | 750.36 | 1.028
313.15 K, x1 = 0.5006 | 743.87 | 0.95
313.15 K, x1 = 0.5964 | 738.91 | 0.901
313.15 K, x1 = 0.6982 | 734.42 | 0.864
313.15 K, x1 = 0.7979 | 730.76 | 0.847
313.15 K, x1 = 0.9 | 727.65 | 0.837
313.15 K, x1 = 1 | 725.53 | 0.847
318.15 K, x1 = 0.1007 | 774.8 | 1.326
318.15 K, x1 = 0.2004 | 763.11 | 1.152
318.15 K, x1 = 0.299 | 753.88 | 1.026
318.15 K, x1 = 0.3981 | 746.37 | 0.938
318.15 K, x1 = 0.5006 | 739.91 | 0.882
318.15 K, x1 = 0.5964 | 734.97 | 0.832
318.15 K, x1 = 0.6982 | 730.51 | 0.801
318.15 K, x1 = 0.7979 | 726.89 | 0.787
318.15 K, x1 = 0.9 | 723.83 | 0.779
318.15 K, x1 = 1 | 721.82 | 0.79
323.15 K, x1 = 0.1007 | 770.78 | 1.192
323.15 K, x1 = 0.2004 | 759.07 | 1.042
323.15 K, x1 = 0.299 | 749.84 | 0.934
323.15 K, x1 = 0.3981 | 742.34 | 0.858
323.15 K, x1 = 0.5006 | 735.91 | 0.804
323.15 K, x1 = 0.5964 | 731 | 0.771
323.15 K, x1 = 0.6982 | 726.58 | 0.749
323.15 K, x1 = 0.7979 | 722.99 | 0.733
323.15 K, x1 = 0.9 | 719.99 | 0.727
323.15 K, x1 = 1 | 718.11 | 0.74
328.15 K, x1 = 0.1007 | 766.71 | 1.074
328.15 K, x1 = 0.2004 | 754.97 | 0.945
328.15 K, x1 = 0.299 | 745.75 | 0.853
328.15 K, x1 = 0.3981 | 738.26 | 0.79
328.15 K, x1 = 0.5006 | 731.86 | 0.744
328.15 K, x1 = 0.5964 | 726.99 | 0.716
328.15 K, x1 = 0.6982 | 722.61 | 0.693
328.15 K, x1 = 0.7979 | 719.07 | 0.685
328.15 K, x1 = 0.9 | 716.13 | 0.68
328.15 K, x1 = 1 | 714.39 | 0.692
333.15 K, x1 = 0.1007 | 762.58 | 0.974
333.15 K, x1 = 0.2004 | 750.83 | 0.86
333.15 K, x1 = 0.299 | 741.61 | 0.782
333.15 K, x1 = 0.3981 | 734.14 | 0.729
333.15 K, x1 = 0.5006 | 727.78 | 0.69
333.15 K, x1 = 0.5964 | 722.94 | 0.667
333.15 K, x1 = 0.6982 | 718.61 | 0.647
333.15 K, x1 = 0.7979 | 715.12 | 0.641
333.15 K, x1 = 0.9 | 712.24 | 0.638
333.15 K, x1 = 1 | 710.68 | 0.651
338.15 K, x1 = 0.1007 | 758.39 | 0.882
338.15 K, x1 = 0.2004 | 746.61 | 0.785
338.15 K, x1 = 0.299 | 737.42 | 0.719
338.15 K, x1 = 0.3981 | 729.97 | 0.675
338.15 K, x1 = 0.5006 | 723.65 | 0.641
338.15 K, x1 = 0.5964 | 718.86 | 0.622
338.15 K, x1 = 0.6982 | 714.57 | 0.606
338.15 K, x1 = 0.7979 | 711.13 | 0.602
338.15 K, x1 = 0.9 | 708.34 | 0.601
338.15 K, x1 = 1 | 706.95 | 0.615
343.15 K, x1 = 0.1007 | 754.12 | 0.802
343.15 K, x1 = 0.2004 | 742.34 | 0.72
343.15 K, x1 = 0.299 | 733.15 | 0.663
343.15 K, x1 = 0.3981 | 725.75 | 0.626
343.15 K, x1 = 0.5006 | 719.48 | 0.598
343.15 K, x1 = 0.5964 | 714.72 | 0.582
343.15 K, x1 = 0.6982 | 710.49 | 0.569
343.15 K, x1 = 0.7979 | 707.12 | 0.566
343.15 K, x1 = 0.9 | 704.41 | 0.567
343.15 K, x1 = 1 | 703.22 | 0.58
348.15 K, x1 = 0.1007 | 749.78 | 0.732
348.15 K, x1 = 0.2004 | 738.01 | 0.662
348.15 K, x1 = 0.299 | 728.84 | 0.614
348.15 K, x1 = 0.3981 | 721.47 | 0.583
348.15 K, x1 = 0.5006 | 715.24 | 0.56
348.15 K, x1 = 0.5964 | 710.54 | 0.546
348.15 K, x1 = 0.6982 | 706.38 | 0.535
348.15 K, x1 = 0.7979 | 703.07 | 0.534
348.15 K, x1 = 0.9 | 700.47 | 0.536
348.15 K, x1 = 1 | 699.47 | 0.549
353.15 K, x1 = 0.1007 | 745.37 | 0.671
353.15 K, x1 = 0.2004 | 733.6 | 0.611
353.15 K, x1 = 0.299 | 724.46 | 0.57
353.15 K, x1 = 0.3981 | 717.14 | 0.544
353.15 K, x1 = 0.5006 | 710.97 | 0.525
353.15 K, x1 = 0.5964 | 706.32 | 0.514
353.15 K, x1 = 0.6982 | 702.22 | 0.506
353.15 K, x1 = 0.7979 | 698.99 | 0.505
353.15 K, x1 = 0.9 | 696.51 | 0.508
353.15 K, x1 = 1 | 695.72 | 0.522
358.15 K, x1 = 0.1007 | 740.87 | 0.617
358.15 K, x1 = 0.2004 | 729.1 | 0.565
358.15 K, x1 = 0.299 | 720.01 | 0.531
358.15 K, x1 = 0.3981 | 712.73 | 0.51
358.15 K, x1 = 0.5006 | 706.63 | 0.493
358.15 K, x1 = 0.5964 | 702.04 | 0.485
358.15 K, x1 = 0.6982 | 698.02 | 0.477
358.15 K, x1 = 0.7979 | 694.88 | 0.479
358.15 K, x1 = 0.9 | 692.52 | 0.483
358.15 K, x1 = 1 | 691.96 | 0.497
363.15 K, x1 = 0.1007 | 736.28 | 0.569
363.15 K, x1 = 0.2004 | 724.55 | 0.525
363.15 K, x1 = 0.299 | 715.49 | 0.497
363.15 K, x1 = 0.3981 | 708.28 | 0.479
363.15 K, x1 = 0.5006 | 702.24 | 0.465
363.15 K, x1 = 0.5964 | 697.72 | 0.458
363.15 K, x1 = 0.6982 | 693.78 | 0.452
363.15 K, x1 = 0.7979 | 690.73 | 0.455
363.15 K, x1 = 0.9 | 688.52 | 0.46
363.15 K, x1 = 1 | 688.18 | 0.475
